As usually defined, the IC50 is the concentration that gives 50% inhibition. Read a high IC50 as lower potency.

One experiment concerns the target PI3-Kα (Mus musculus (Mouse), UniProt P42337). Kind of experiment: PI3-Kα Biochemical Assay (fluorescence polarization kinase assay). The procedure, abridged:
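Co-expressed mouse p110/p85 PI3-Kα (4 nM stock) acting on PI(4,5)P2 (60 μM stock) with ATP/MgCl2 in HEPES pH 7.4 buffer, 35 min at room temperature, then EDTA stop. PI(3,4,5)P3 product detected by displacement of TAMRA-PIP3 from Grip1 PH domain (FP, 535/580 nm). IC50 from sigmoidal fit of % inhibition.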
On the technique in general: Fluorescence polarisation rises when a labelled molecule tumbles more slowly, as on binding a larger partner.

Experiment [1] deals with PI3-K in BT20 cells (phosphorylation of AKT at serine 473). Briefly: PI3-Kα Cellular Assay (AKT Ser473 phosphorylation ELISA in BT20 cells). It counts as cell-based, human. The settings on record: 1 hour incubation. The procedure, abridged: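 Cells seeded overnight in 0.5% FBS, then exposed 1 h at 37 °C to an 11-concentration 1:3 dilution series, in duplicate.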
For orientation: In an ELISA, binding on a coated surface is turned into a signal by an enzyme label.

The mark [2] stands for this setting: Homo sapiens, BT-20, pAKT Ser473 ELISA.

The structures appear in SMILES notation.

Chain of PI3-Kα (P42337 whole entry, the tested form may be a part): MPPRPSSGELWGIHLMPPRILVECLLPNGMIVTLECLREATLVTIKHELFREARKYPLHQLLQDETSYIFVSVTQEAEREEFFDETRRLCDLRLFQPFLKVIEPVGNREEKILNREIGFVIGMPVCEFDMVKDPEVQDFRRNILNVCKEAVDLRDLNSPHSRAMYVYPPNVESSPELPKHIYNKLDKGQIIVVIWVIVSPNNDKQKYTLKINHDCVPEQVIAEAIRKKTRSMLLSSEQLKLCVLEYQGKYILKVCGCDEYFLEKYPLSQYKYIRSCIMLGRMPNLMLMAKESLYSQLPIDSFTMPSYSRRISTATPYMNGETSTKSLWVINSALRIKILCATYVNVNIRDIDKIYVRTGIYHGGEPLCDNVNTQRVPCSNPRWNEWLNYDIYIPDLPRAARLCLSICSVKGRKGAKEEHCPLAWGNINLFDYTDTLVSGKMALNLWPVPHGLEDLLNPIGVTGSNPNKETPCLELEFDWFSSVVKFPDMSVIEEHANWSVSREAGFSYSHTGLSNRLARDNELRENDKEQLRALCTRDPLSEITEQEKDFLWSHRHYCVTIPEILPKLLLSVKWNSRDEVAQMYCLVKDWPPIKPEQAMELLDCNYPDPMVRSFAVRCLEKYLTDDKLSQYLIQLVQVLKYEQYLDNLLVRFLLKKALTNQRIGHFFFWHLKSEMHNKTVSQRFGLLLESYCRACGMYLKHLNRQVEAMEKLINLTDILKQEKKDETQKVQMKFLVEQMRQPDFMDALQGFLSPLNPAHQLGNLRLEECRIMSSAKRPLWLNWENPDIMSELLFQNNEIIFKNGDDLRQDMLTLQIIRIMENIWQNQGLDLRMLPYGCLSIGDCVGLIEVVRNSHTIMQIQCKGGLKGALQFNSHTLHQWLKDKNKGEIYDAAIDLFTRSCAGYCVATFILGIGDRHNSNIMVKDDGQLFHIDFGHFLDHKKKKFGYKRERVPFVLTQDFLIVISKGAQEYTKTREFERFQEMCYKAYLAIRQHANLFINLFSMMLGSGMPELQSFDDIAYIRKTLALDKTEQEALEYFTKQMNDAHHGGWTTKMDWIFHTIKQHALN
Chain of PI3-Kα (P26450 whole entry partner, the tested form may be a part): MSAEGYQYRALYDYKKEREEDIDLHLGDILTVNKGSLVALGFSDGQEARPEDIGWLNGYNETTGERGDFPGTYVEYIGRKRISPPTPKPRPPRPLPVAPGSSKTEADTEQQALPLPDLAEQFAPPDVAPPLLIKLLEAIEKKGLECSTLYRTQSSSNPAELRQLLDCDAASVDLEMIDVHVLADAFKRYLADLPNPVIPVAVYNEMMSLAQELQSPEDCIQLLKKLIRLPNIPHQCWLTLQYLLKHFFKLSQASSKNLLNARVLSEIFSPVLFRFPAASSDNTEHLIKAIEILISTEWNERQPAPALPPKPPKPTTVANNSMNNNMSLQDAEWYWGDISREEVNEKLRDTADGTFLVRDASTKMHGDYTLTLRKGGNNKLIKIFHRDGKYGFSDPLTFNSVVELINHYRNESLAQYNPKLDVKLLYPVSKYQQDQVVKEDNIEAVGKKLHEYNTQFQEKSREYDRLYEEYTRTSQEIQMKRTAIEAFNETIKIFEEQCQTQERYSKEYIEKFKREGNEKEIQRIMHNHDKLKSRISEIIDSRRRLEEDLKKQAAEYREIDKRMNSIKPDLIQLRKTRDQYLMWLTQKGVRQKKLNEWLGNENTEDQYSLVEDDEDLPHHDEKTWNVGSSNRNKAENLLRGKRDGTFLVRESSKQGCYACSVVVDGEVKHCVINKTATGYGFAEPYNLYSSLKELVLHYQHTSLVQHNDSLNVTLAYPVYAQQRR

On to `Cc1nc(N)nc2c1cc(-c1cnc3[nH]ccc3c1)c(=O)n2CC1CCCO1` (stereo not drawn) [Compound 225, 2-amino-4-methyl-6-(1H-pyrrolo[2,3-b]pyridin-5-yl)-8-((tetrahydrofuran-2-yl)methyl)pyrido[2,3-d]pyrimidin-7(8H)-one], for which the concentration for half-maximal inhibition (IC50) against PI3-Kα amounted to 5.4 nM; in experiment [1] (setting [2]), 36.6 nM.

`Cc1nc(N)nc2c1cc(-c1cn[nH]c1)c(=O)n2C1CN(C(=O)OC(C)(C)C)C1` [Compound 226, tert-butyl 3-(2-amino-4-methyl-7-oxo-6-(1H-pyrazol-4-yl)pyrido[2,3-d]pyrimidin-8(7H)-yl)azetidine-1-carboxylate]: the values for the IC50 (against PI3-Kα; in experiment [1] (setting [2])) were 120 nM and 41.5 nM, respectively.

With `COc1ccc(-c2cc3c(C)nc(N)nc3n(C3CN(C(=O)OC(C)(C)C)C3)c2=O)cn1` [Compound 227], the values for the half-inhibitory concentration (IC50) (at PI3-Kα; in experiment [1] (setting [2])) were 29 nM and 318 nM, respectively.

Consider `Cc1nc(N)nc2c1cc(-c1cnc3[nH]ccc3c1)c(=O)n2C1CN(C(=O)OC(C)(C)C)C1` [Compound 228, tert-butyl 3-(2-amino-4-methyl-7-oxo-6-(1H pyrrolo[2,3-b]pyridin-5 yl)pyrido[2,3-d]pyrimidin-8(7H)-yl)azetidine-1-carboxylate], for which the IC50 against PI3-Kα turned out to be 38 nM; in experiment [1] (setting [2]), 256 nM.

On to `Cc1nc(N)nc2c1cc(-c1cnc(N)cn1)c(=O)n2C1CCCC1` [Compound 229, 2-amino-6-(5-aminopyrazin-2-yl)-8-cyclopentyl-4-methylpyrido[2,3-d]pyrimidin-7(8H)-one], for which the IC50 on PI3-Kα was 15 nM; in experiment [1] (setting [2]), 17.9 nM.

Turning to `Cc1nc(N)nc2c1cc(-c1cncc(N)n1)c(=O)n2C1CCCC1` [Compound 230, 2-amino-6-(6-aminopyrazin-2-yl)-8-cyclopentyl-4-methylpyrido[2,3-d]pyrimidin-7(8H)-one], the values for the IC50 (against PI3-Kα; in experiment [1] (setting [2])) were 20 nM and 33.9 nM, respectively.

With `Cc1nc(N)nc2c1cc(-c1cccc(Cl)n1)c(=O)n2C1CCCC1` [Compound 231, 2-Amino-6-(6-chloro-pyridin-2-yl)-8-cyclopentyl-4-methyl-8H-pyrido[2,3-d]pyrimidin-7-one], the IC50 was determined as 170 nM at PI3-Kα and 3450 nM in experiment [1] (setting [2]).

In the case of `CNc1nc(C)c2cc(-c3ccc(OC)nc3)c(=O)n(CCC3CC3)c2n1` [Compound 232, 8-(2-Cyclopropyl-ethyl)-6-(6-methoxy-pyridin-3-yl)-4-methyl-2-methylamino-8H-pyrido[2,3-d]pyrimidin-7-one], the 50% inhibitory concentration (IC50) is 8.9 nM on PI3-Kα and 41.4 nM in experiment [1] (setting [2]).

For `COc1ccc(-c2cc3c(C)nc(N)nc3n(CCC3CC3)c2=O)cn1` [Compound 233, 2-Amino-8-(2-cyclopropyl-ethyl)-6-(6-methoxy-pyridin-3-yl)-4-methyl-8H-pyrido[2,3-d]pyrimidin 7-one], the figures for the IC50 (at PI3-Kα; in experiment [1] (setting [2])) were 11 nM and 94.2 nM, respectively.

Regarding `CNc1nc(C)c2cc(-c3cnn(C)c3)c(=O)n(C3CCCC3)c2n1` [Compound 234, 8-Cyclopentyl-4-methyl-2-methylamino-6-(1-melhyl-1H-pyrazol-4-yl)-8H-pyrido[2,3-d]pyrimidin-7-one], the IC50 at PI3-Kα was determined as 39 nM; in experiment [1] (setting [2]), 314 nM.

Turning to `CNc1nc(C)c2cc(-c3cnn(CC(F)F)c3)c(=O)n(C3CCCC3)c2n1` [Compound 236, 8-Cyclopentyl-6-[1-(2,2-difluoro-ethyl)-1H pyrazol-4-yl]-4-methyl 2-methylamino-8H-pyrido[2,3 d]pyrimidin-7-one], the half-maximal inhibitory concentration (IC50) on PI3-Kα was 46 nM; in experiment [1] (setting [2]), 10000 nM.

Consider `Cc1nc(N)nc2c1cc(-c1cnn(CC(F)F)c1)c(=O)n2C1CCCC1` [Compound 237, 2-Amino-8-cyclopentyl-6-[1-(2,2-drfluoro-ethyl)-1H-pyrazol-4-yl]-4-methyl 8H-pyrido[2,3-d]pyrimidin-7-one], for which the IC50 against PI3-Kα is 12 nM; in experiment [1] (setting [2]), 397 nM.

As for `COc1ccc(-c2cc3c(C)nc(N)nc3n(CCN)c2=O)cn1` [Compound 238, 2-Amino-8-(2-amino-ethyl)-6-(6-methoxy-pyridin-3-yl)-4-methyl-8H-pyrido[2,3-d]pyrimidin-7-one], the 50% inhibitory concentration (IC50) worked out at 340 nM against PI3-Kα and 4530 nM in experiment [1] (setting [2]).

`Cc1nc(N)nc2c1cc(-c1cnn(CC(C)(C)O)c1)c(=O)n2C1CCCC1` [Compound 240, 2-Amino-8-cyclopentyl-6-[1-(2-hydroxy-2-methyl-propyl)-1H-pyrazol-4-yl]-4-methyl-8H-pyrido[2,3-d]pyrimidin-7-one]: the IC50 against PI3-Kα was 89 nM; in experiment [1] (setting [2]), 101 nM.

As to `COc1ccc(-c2cc3c(C)nc(N)nc3n(CC3CCOCC3)c2=O)cn1` [Compound 242, 2-Amino-6-(6-methoxy-pyridin-3-yl)-4-methyl-8-(tetrahydro-pyran-4-ylmethyl)-8H-pyrido[2,3-d]pyrimidin-7-one], the IC50 on PI3-Kα worked out at 15 nM; in experiment [1] (setting [2]), 88.4 nM.

On to `COc1ccc(-c2cc3c(C)nc(N)nc3n(CC3(F)CCOCC3)c2=O)cn1` [Compound 243, 2-Amino-8-(4-fluoro-tetrahydro-pyran-4-ylmethyl)-6-(6-methoxy-pyridin-3-yl)-4-methyl-8H-pyrido[2,3-d]pyrimidin 7-one], for which the concentration for half-maximal inhibition (IC50) at PI3-Kα was found to be 18 nM; in experiment [1] (setting [2]) it was 316 nM.

Consider `COc1ccc(-c2cc3c(C)nc(N)nc3n(CC(C)(C)F)c2=O)cn1` [Compound 244, 2-Amino-8-(2-fluoro-2-methyl-propyl)-6-(6-methoxy-pyridin-3-yl)-4-methyl-8H-pyrido[2,3-d]pyrimidin-7-one], for which the IC50 against PI3-Kα turned out to be 30 nM; in experiment [1] (setting [2]), 437 nM.

Regarding `CNc1nc(C)c2cc(-c3c[nH]c(C)n3)c(=O)n(C3CCCC3)c2n1` [Compound 245, 8-Cyclopentyl-4-methyl-2-methylamino-6-(2-methyl-1H-imidazol-4-yl)-8H-pyrido[2,3-d]pyrimidin-7-one], the half-inhibitory concentration (IC50) against PI3-Kα stood at 67 nM; in experiment [1] (setting [2]), 181 nM.

For the compound `COc1ccc(-c2cc3c(C)nc(N)nc3n(C3CCN(C(=O)OC(C)(C)C)C3)c2=O)cn1` (stereo not drawn) [Compound 246, 3-[2-Amino-6-(6-methoxy-pyridin-3-yl)-4-methyl-7-oxo-7H-pyrido[2,3-d]pyrimidin 8-yl]-pyrrolidine-1-carboxylic acid tert-butyl ester], the half-maximal inhibitory concentration (IC50) amounted to 27 nM against PI3-Kα and 172 nM in experiment [1] (setting [2]).

`COc1ccc(-c2cc3c(C)nc(N)nc3n(C3CCNC3)c2=O)cn1` (stereo not drawn) [Compound 247, 2-Amino-6-(6-methoxy-pyridin-3-yl)-4-methyl-8-pyrrolidin-3-yl-8H-pyrido[2,3-d]pyrimidin-7-one]: the results for the IC50 (against PI3-Kα; in experiment [1] (setting [2])) were 200 nM and 671 nM, respectively.

In the case of `COc1ccc(-c2cc3c(C)nc(N)nc3n(C3CCN(C(C)=O)C3)c2=O)cn1` (stereo not drawn) [Compound 248, 8-(1-Acetyl-pyrrolidin-3-yl)-2-amin-6-(6-methoxy-pyridin-3-yl)-4-methyl-8H-pyrido[2,3-d]pyrimidin-7-one], the concentration for half-maximal inhibition (IC50) on PI3-Kα turned out to be 7 nM; in experiment [1] (setting [2]), 127 nM.

`CNc1nc(C)c2cc(C(=O)Nc3cc[nH]n3)c(=O)n(C3CCCC3)c2n1` [Compound 250, 8-Cyclopentyl-4-methyl-2-methylamino-7-oxo-7,8-dihydro-pyrido[2,3-d]pyrimidine-6-carboxylic acid (1H-pyrazol-3-yl)-amide]: the half-inhibitory concentration (IC50) at PI3-Kα was found to be 2.34 nM; in experiment [1] (setting [2]), 16.4 nM.

For the compound `Cc1nc(N)nc2c1cc(C(=O)Nc1ccn[nH]1)c(=O)n2[C@H]1CC[C@H](O)CC1` [Compound 251, 2-Amino-8-(trans-4-hydroxycyclohexyl)-4-methyl-7-oxo-N-1H-pyrazol-5-yl-7,8-dihydropyrido[2,3-d]pyrimidine-6-carboxamide], the IC50 on PI3-Kα worked out at 0.59 nM; in experiment [1] (setting [2]), 28.3 nM.

Regarding `Cc1nc(N)nc2c1cc(-c1ccc(N3CCCC3)nc1)c(=O)n2[C@H]1CC[C@H](O)CC1` [Compound 253, 2-amino-8-(trans-4-hydroxycyclohexyl)-4-methyl-6-(6-pyrrolidin-1-ylpyridin-3-yl)pyrido[23-d]pyrimidin-7(8H)-one], the IC50 on PI3-Kα amounted to 19 nM; in experiment [1] (setting [2]), 4.92 nM.

For the compound `COc1ncc(-c2cc3c(C)nc(N)nc3n(C3CCCC3)c2=O)cn1` [Compound 255, 2-amino-8-cyclopentyl-6-(2-methoxypyrimidin-5-yl)-4-methylpyrido[23-d]pyrimidin-7(8H)-one], the 50% inhibitory concentration (IC50) was 2 nM on PI3-Kα and 9.57 nM in experiment [1] (setting [2]).

Regarding `Cc1nc(N)nc2c1cc(-c1cccc(CO)c1)c(=O)n2C1CCCC1` [Compound 256], the concentration for half-maximal inhibition (IC50) is 3.1 nM at PI3-Kα and 20.2 nM in experiment [1] (pAKT Ser473 ELISA).

For `Cc1cc(-c2cc3c(C)nc(N)nc3n(C3CCCC3)c2=O)cnc1N(C)C` [Compound 257, 2-amino-8-cyclopentyl-6-[6-(dimethylamino)-5-methylpyridin-3-yl]-4-methylpyrido[23-d]pyrimidin-7(8H)-one], the values for the IC50 (at PI3-Kα; in experiment [1] (setting [2])) were 11 nM and 23.1 nM, respectively.

For the compound `Cc1nc(N)nc2c1cc(-c1ccc(N3CCCC3)nc1)c(=O)n2C1CCCC1` [Compound 258, 2-amino-8-cyclopentyl-4-methyl-6-(6-pyrrolidin-1-ylpyridin-3-yl)pyrido[23-d]pyrimidin-7(8H)-one], the 50% inhibitory concentration (IC50) against PI3-Kα came out at 88 nM; in experiment [1] (setting [2]), 26.5 nM.

Turning to `COc1ncc(-c2cc3c(C)nc(N)nc3n(C3CCOCC3)c2=O)cn1` [Compound 259, 2-amino-6-(2-methoxypyrimidin-5-yl)-4-methyl-8-(tetrahydro-2H-pyran-4-yl)pyrido[23-d]pyrimidin-7(8H)-one], the IC50 came to 45 nM against PI3-Kα and 26.7 nM in experiment [1] (setting [2]).

On to `Cc1nc(N)nc2c1cc(-c1cccc(CO)c1)c(=O)n2C1CCOCC1` [Compound 260, 2-amino-6-[3-(hydroxymethyl)phenyl]-4-methyl-8-(tetrahydro-2H-pyran-4-yl)pyrido[23-d]pyrimidin-7(8H)-one], for which the 50% inhibitory concentration (IC50) against PI3-Kα was 3.9 nM; in experiment [1] (setting [2]), 33.2 nM.

(Values after patent US8633204B2 (Pfizer Inc., priority 2006, dated 2014).)
